Columns and labels:
Assay type in all cases: functional
[1] = system: Spodoptera litura; assay: Insecticidal activity against third-instar larval stage of Spodoptera litura fed on compound-treated castor leaves assessed as pupal mortality at 10 ug/cm2 (reference value: 4.17%)
[2] = system: Spodoptera litura; assay: Antifeedant activity against third-instar larval stage of Spodoptera litura fed on compound-treated castor leaves assessed as feeding deterrence index at 10 ug/cm2 by dual choice leaf disc method
[3] = system: Spodoptera litura; assay: Insecticidal activity against third-instar larval stage of Spodoptera litura fed on compound-treated castor leaves assessed as larval mortality at 10 ug/cm2 (reference value: 4%)
[4] = system: Spodoptera litura; assay: Insecticidal activity against third-instar larval stage of Spodoptera litura fed on compound-treated castor leaves assessed as total larval duration time at 5 ug/cm2 (reference value: 12.7 +/- 0.89 days)
[5] = system: Spodoptera litura; assay: Antifeedant activity against third-instar larval stage of Spodoptera litura fed on compound-treated castor leaves assessed as feeding deterrence index at 5 ug/cm2 by dual choice leaf disc method
[6] = system: Spodoptera litura; assay: Insecticidal activity against third-instar larval stage of Spodoptera litura fed on compound-treated castor leaves assessed as total larval duration time at 10 ug/cm2 (reference value: 12.7 +/- 0.89 days)
[7] = system: Spodoptera litura; assay: Insecticidal activity against third-instar larval stage of Spodoptera litura fed on compound-treated castor leaves assessed as pupal duration time at 5 ug/cm2 (reference value: 8.1 +/- 0.14 days)
[8] = system: Spodoptera litura; assay: Insecticidal activity against third-instar larval stage of Spodoptera litura fed on compound-treated castor leaves assessed as pupal duration time at 10 ug/cm2 (reference value: 8.1 +/- 0.14 days)
[9] = system: Spodoptera litura; assay: Insecticidal activity against third-instar larval stage of Spodoptera litura fed on compound-treated castor leaves assessed as pupal mortality at 5 ug/cm2 (reference value: 4.17%)
[10] = system: Spodoptera litura; assay: Insecticidal activity against third-instar larval stage of Spodoptera litura fed on compound-treated castor leaves assessed as larval mortality at 5 ug/cm2 (reference value: 4%)

In the case of `C/C=C(\C)C(=O)O[C@H]1C[C@@H](OC(C)=O)[C@@]2(C)CO[C@H]3[C@H]4O[C@@H]5C[C@@H](C6=CCOC6=O)C(C)=C5[C@@]4(C)[C@H](CC(=O)OC)[C@]1(C)[C@@H]32` [SALANNOBUTYROLACTONE], the mortality at 10 µg/cm2 [1] is reported as 37.2%, the FDI [2] is reported as 36.69% and the mortality at 10 µg/cm2 [3] is reported as 52%. For the same molecule, the Time [4] was 14 days, the FDI [5] was 39.34% and the Time [6] was 15.5 days. It also gave a Time [7] of 8.7 days, a Time [8] of 9.4 days and a mortality at 5 µg/cm2 [9] of 30.2%. It also gave a mortality at 5 µg/cm2 [10] of 32%.
`C/C=C(\C)C(=O)O[C@H]1C[C@@H](OC(C)=O)[C@@]2(C(=O)OC)CO[C@H]3[C@@H](O)[C@@](C)([C@]45O[C@@]4(C)[C@@H]4C[C@H]5O[C@@H]5OC=C[C@@]54O)[C@H]4[C@]1(CO[C@]4(O)C(=O)OC)[C@@H]32` [AZADIRACHTIN A] was tested, and the mortality at 10 µg/cm2 [1] was 40%, the FDI [2] was 12.59% and the mortality at 10 µg/cm2 [3] was 64%. It also gave a Time [4] of 15 days, an FDI [5] of 15.62% and a Time [6] of 16.3 days. The Time [7] was 9.8 days, the Time [8] was 10.14 days and the mortality at 5 µg/cm2 [9] was 33.2%.
For `C/C=C(\C)C(=O)O[C@H]1C[C@@H](O)[C@@]2(C)CO[C@H]3[C@H]4O[C@@H]5C[C@@H](C6=CCOC6=O)C(C)=C5[C@@]4(C)[C@H](CC(=O)OC)[C@]1(C)[C@@H]32` [DESACETYLSALANNOBUTYROLACTONE], the mortality at 10 µg/cm2 [1] was 33.3%, the FDI [2] was 47.97% and the mortality at 10 µg/cm2 [3] was 40%. It also gave a Time [4] of 13.1 days, an FDI [5] of 50.45% and a Time [6] of 14.4 days. It also gave a Time [7] of 8.41 days, a Time [8] of 8.6 days and a mortality at 5 µg/cm2 [9] of 27.3%. For the same molecule, the mortality at 5 µg/cm2 [10] was 24%.
